Reference: paper PMC12655819 (Pharmaceuticals, 2025)
Where two headings read alike, the source gives them in different places. Marks after values point to notes of the source that are not given here.

Experiments:
[1] = Pharmacokinetics from plasma unbound levels in plasma ultrafiltrate (fMPA, fMPAG); assay type: in vivo, human; conditions: free level in plasma ultrafiltrate; for AUC(0–4) Normalized to Drug Dose: normalized to MMF dose; for Cmax: pediatric renal transplant recipients (n = 20) on MMF (CellCept), steady state, 0–4 h post-dose
Description: The AUC0–4, Tmax, and Cmax parameters were calculated using the R (version 4.5.1) package software (R Core Team, 2025), supported by RStudio (version 2025.05.1+513) from Posit PBC software (Boston, MA, USA). […] The vMPA and vMPAG capillary blood levels were corrected using formulas validated in our department (partially published by Kocur et al.) and expressed as estimated capillary plasma concentrations. […] Individual PK profiles for each patient included in the study are provided in the Supplementary File (Figures S4 and S5).
Next, the sample was centrifuged at 3000× g for 5 min at ambient conditions, and the supernatant was transferred into a chromatographic vial. Sample processing was performed at the Department of Drug Chemistry, Pharmaceutical and Biomedical Analysis, Medical University of Warsaw, Poland.
From each patient (if they consented to all sampling types), four samples were collected simultaneously at all defined time points of the dynamic PK profile (0, 0.5, 1, 2, and 4 h after drug administration). Whole blood was collected using standard venipuncture by a phlebotomist into a K3-EDTA test tube (Sarstedt, Nümbrecht, Germany). Plasma for analytical determination was obtained by centrifuging a portion of the whole blood and stored at −40 °C until assay. At the same time, 10 µL capillary blood samples were collected from a finger prick using the Mitra™ device (VAMS samples were stored in light-protected aluminum zip bags with desiccant at room temperature).

[2] = cited from earlier work
[3] = pediatric renal transplant recipients (n = 20) on MMF, mean (range)

With `COc1c(C)c2c(c(O)c1C/C=C(\C)CCC(=O)O)C(=O)OC2` [MPA, Mycophenolic acid] the “AUC(0–4) Normalized to Drug Dose” value ([1]; n = 20, mean (range)) was 0.596 (0.042–1.577) ^d mg × h/mL × g, the concentration at 0 h ([1]; human, plasma ultrafiltrate (unbound level in EDTA plasma), 0 h (pre-dose), n = 20, mean ± SD, read-out: C0 concentration) was 22 ± 16 ng/mL and the concentration at 0.5 h ([1]; human, plasma ultrafiltrate (unbound level in EDTA plasma), 0.5 h post-dose, n = 20, mean ± SD, read-out: C0.5 concentration) was 104 ± 125 ng/mL. For the same compound, the concentration at 1 h ([1]; human, plasma ultrafiltrate (unbound level in EDTA plasma), 1 h post-dose, n = 20, mean ± SD, read-out: C1 concentration) was 149 ± 146 ng/mL, the concentration at 2 h ([1]; human, plasma ultrafiltrate (unbound level in EDTA plasma), 2 h post-dose, n = 20, mean ± SD, read-out: C2 concentration) was 49 ± 41 ng/mL and the concentration at 4 h ([1]; human, plasma ultrafiltrate (unbound level in EDTA plasma), 4 h post-dose, n = 20, mean ± SD, read-out: C4 concentration) was 31 ± 50 ng/mL. The Cmax ([1]; human, plasma ultrafiltrate (unbound level in EDTA plasma), mean (range), read-out: Cmax) was 160 ng/mL, the AUC(0-t) ([1]; human, plasma ultrafiltrate (unbound level in EDTA plasma), pediatric renal transplant recipients (n = 20) on MMF, mean (range)) was 276 ng·h/mL and the Tmax ([1]; human, plasma ultrafiltrate (unbound level in EDTA plasma), pediatric renal transplant recipients (n = 20) on MMF, mean (range), read-out: Tmax) was 54 min. For the same compound, the “increase in free fraction” value ([2]; displacement by MPAG in severe renal impairment) was 7%, the “affinity for plasma proteins (binding)” value ([2]; general statement of the introduction) was 97–99% and the “time of peak plasma concentration after administration” value [2] was 1 to 2 h. The unbound fraction ([2]; typical range) was 1 to 2.5%.
With `COc1c(C)c2c(c(O[C@@H]3O[C@H](C(=O)O)[C@@H](O)[C@H](O)[C@H]3O)c1C/C=C(\C)CCC(=O)O)C(=O)OC2` [MPAG, mycophenolic acid glucuronide] the C0 concentration ([1]; 0 h (pre-dose), n = 20, mean ± SD) was 3893 ± 2073 ng/mL, the C0.5 concentration ([1]; 0.5 h post-dose, n = 20, mean ± SD) was 6264 ± 4238 ng/mL and the C1 concentration ([1]; 1 h post-dose, n = 20, mean ± SD) was 8.029 ± 4.393 mg/L. For the same compound, the C2 concentration ([1]; 2 h post-dose, n = 20, mean ± SD) was 6.889 ± 3.791 mg/L, the C4 concentration ([1]; 4 h post-dose, n = 20, mean ± SD) was 4.701 ± 2.218 mg/L and the “AUC(0–4) Normalized to Drug Dose” value ([1]; n = 20, mean (range)) was 66.47 (19.97–195.68) ^d mg × h/mL × g. For the same compound, the Cmax ([1]; mean (range)) was 8.98 (3.85–19.81) mg/L, the AUC(0–4) [1, 3] was 25200 ng·h/mL and the Tmax [1, 3] was 1.55 (0.50–2.00) h. For the same compound, the “increase of concentration in severe renal impairment” value ([2]; patients with severe renal impairment, up) was 3–6 fold, the “time of peak plasma concentration after administration” value [2] was 1 to 4 h and the binding to albumin ([2]; stable transplant recipients) was “approximately 82%”.
